Results as given in patent US20080287375A1, “Selective Glycosidase Inhibitors, Methods of Making Inhibitors, and Uses Thereof” (SIMON FRASER UNIVERSITY, priority 2005, published 2008).
“Also recorded” adds a separate entry of the source.

What was measured:
[1] = system: O-GlcNAc-modified proteins in COS-7 cells; assay: Western blot of O-GlcNAc-modified proteins in COS-7 cells cultured with inhibitors; type: cell-based; conditions: 50 μM inhibitor
Procedure: COS-7 cells were cultured in DMEM medium (Invitrogen) supplemented with 5-10% FBS (Invitrogen). Aliquots of inhibitors (50 μL of a stock in 95% ethanol) were delivered onto tissue culture plates and the ethanol was evaporated. The cells were incubated at 37° C. for 40 hours at which time they reached approximately 80% confluence. […] COS-7 cells were cultured to 25% confluence in 5% FBS and an aliquot (100 μL) of inhibitor dissolved in media and filter sterilized was added to each plate to yield a final concentration of 50 μM of inhibitor. COS-7 cells (2×10 cm plates) were harvested at the appropriate times by scraping and were pooled by centrifugation (200×g, 10 min). Cells were washed once with PBS, pH 7.0 (10 mL) and pelleted (200×g, 10 min). The cells could be frozen at −80° C. at this point. Control cultures without inhibitors were treated in the same manner.
A culture of control cells was treated in the same manner as follows but the cultures contained no inhibitor. Cells were harvested as described above. Frozen cells were thawed at 4° C., and cold lysis buffer (1 mL of 50 mM Tris, pH 8.0 containing 150 mM NaCl, 1 mM EDTA, 1 mM PMSF, 1% NP-40, 0.5% sodium deoxycholate, and 1 mM of inhibitor 90) was added. After 10 minutes at 4° C. the solution was centrifuged at 14,000 rpm in an Eppendorf 5415C microcentrifuge and the supernatant was collected. SDS/PAGE loading buffer was added to an aliquot (15 μL) of each sample, and after heating at 96° C. aliquots were loaded onto 10% or 12% Tris-HCl polyacrylamide gels. After electrophoresis, the samples were electroblotted to nitrocellulose membrane (0.45 μm, Bio-Rad). Transfer was verified by visual inspection of the transfer of prestained markers (Dual Colour Precision Plus Protein Standard—Biorad). The membrane was blocked by using 5% BSA (fraction V, Sigma) in PBS (blocking buffer A for samples probed with mouse anti-O-GlcNAc monoclonal IgM antibody (MAb CTD 110.6—Covance)) or 5% low-fat dry powdered milk (blocking buffer B for samples probed with anti-β-actin), pH 7.4, containing 0.1% Tween 20 for 1 h at room temperature or overnight at 4° C. The blocking solution was decanted, and a solution of blocking buffer A containing MAb CTD 110.6 (1:2500 of the stock) or blocking buffer B containing mouse monoclonal anti-β-actin IgG (Clone AC-40—Sigma) was added (1:1000 dilution) as appropriate. The membrane was incubated at room temperature for 1 h or overnight at 4° C. after which the blocking buffer was decanted and the membrane was rinsed with PBS, pH 7.4, containing 0.1% Tween 20 (wash buffer). Membranes were then rinsed for 2×5 min and 3×15 min with wash buffer. For immunological detection of O-GlcNAc, the membrane was incubated in blocking buffer A for 1 hour at RT and, after washing, the membrane was incubated with a secondary goat anti-mouse-IgM-HRP-conjugate (1:2500, Santa Cruz Biotech) for one hour at RT or 4° C. overnight in blocking solution. For detection of β-actin levels, the membrane was incubated with a secondary goat anti-mouse-IgG-HRP conjugate (1:100000, Sigma) for one hour at RT or 4° C. overnight in blocking solution B. Membranes were washed and detection of membrane bound goat anti-mouse-IgG-HRP conjugate was accomplished by chemiluminescent detection using the SuperSignal West Pico Chemiluminescent Detection Kit (Pierce) and film (Kodak Biomax MR).

[2] = system: O-GlcNAc modified proteins in rat tissues; assay: Western blot of O-GlcNAc modified proteins in tissues of rats after tail vein injection of varying doses; type: in vivo
Procedure: Four rats were treated by tail vein injection of different doses of inhibitor 9c or a buffer control. Two sequential injections were performed approximately 18 hours apart and the rats were then sacrificed 24 hours after the first injection. Western blot analyses using an α-O-GlcNAc antibody (CTD110.6) clearly indicate that the inhibitor 9c easily gains access into a variety of tissues including brain (A), muscle (B) and liver (C) and doses as low as 50 mg kg-1 are almost enough to elicit a maximal increase in O-GlcNAc levels.
Eight give-week old healthy Sprague-Dawley rats (Charles River) were caged in pairs. The animals were allowed to acclimatize to their new surroundings at the Simon Fraser University Animal Care Facilities (SFU ACF) for one week. At 3:00 pm, four rats were given a tail vein injection of 400 μl of inhibitor 9c dissolved in PBS buffer (pH 7.4) at a dose of 50 mg kg^−1. The remaining four rats were given a tail vein injection of 400 μl of PBS as a control. All solutions were pre-sterilized through a 0.2 μm filter (Millipore) and injected with 0.5 mL syringes containing a 28 gauge×0.5″ needle (Terumo) as bolus over 10 seconds. Food was withdrawn at approximately 11:00 pm. At 8:30 am the following morning, the rats were given a second injection. After three hours the rats were anesthetized with isoflurane and a 100 μL blood sample was taken from the jugular vein to measure the fasting blood glucose levels. An intravenous glucose tolerance test (IVGTT) was then performed. A 0.5 mL injection of a 50% w/v solution of glucose dissolved in PBS (pre-sterilized) was administered via the tail vein over 30 seconds. At 10, 20, 30, 40, 60, and 90 minutes after the injection of glucose, a 100 μL sample of blood was taken from the jugular vein. Immediately following blood sampling, a small aliquot of the blood was used to measure the blood glucose concentration using a glucometer (Accu-Check Advantage, Roche) and the remaining blood was stored on ice for 20 minutes and spun down to isolate the serum. Following completion of the IVGTT, the rats were sacrificed with 1:1 mixture of CO2/O2. Tissue samples (brain, muscle, liver, spleen, pancreas, fat) were immediately harvested and flash frozen with liquid nitrogen and stored at −80° C. To homogenize the tissues to obtain a cell extract, tissue were kept frozen while they were ground with a mortal and pestle into a fine powder. 100 mg of the powder was then homogenized in 1 mL of cold lysis buffer (50 mM Tris, 0.5% sodium deoxycholate, 0.1% SDS, 1% nonidet P-40, 1 mM EDTA, 1 mM PMSF, and 1 mM butyl-NAG-thiazoline) using two 10 second pulse on a Jenke and Kunkel Ultra-Turrax tissue homogenizer tissue homogenizer. Tissues were then spun down at 13,000 rpm in a microcentrifuge (eppendrof) to remove the cell debris. The soluble cell extract was then analyzed for levels O-GlcNAc modified proteins using Western blot analysis as described above for the cell studies.

discomforts of treated rats compared to the control rat ([2]; tail vein injection): did not appear to show any discomforts | time in which the inhibitor gains access to a wide variety of tissues ([2]; tail vein injection): less than 24 hours
SMILES: CCCC1=N[C@@H]2[C@@H](O)[C@H](O)[C@@H](CO)O[C@@H]2S1 [Compound 9c, 1,2-dideoxy-2′-propyl-α-D-glucopyranoso-[2,1-d]-2′-thiazoline]
cellular levels of O-GlcNAc-modified proteins compared to control ([1]; 40 hours, Western blot): Marked increases; also recorded: increase in cellular levels of O-GlcNAc-modified proteins | levels of O-GlcNAc-modified proteins after one hour of exposure ([1]; one hour): increases in levels of O-GlcNAc-modified proteins were observed | levels of O-GlcNAc-modified proteins as a function of time ([1]; over 40 hours): clear time dependent increase | dose enough to elicit the maximal increase in O-GlcNAc modified proteins ([2]; tail vein injection): 50 mg/kg | time for which the inhibitor retains an effect ([2]; tail vein injection): ≥ 6 h | cellular levels of O-GlcNAc modified proteins in brain tissue ([2]; tail vein injection, 50, 120 and 300 mg/kg, compared to controls): marked increases | dose almost enough to elicit a maximal increase in O-GlcNAc levels ([2]; tail vein injection, brain, muscle, liver): ~50 mg/kg
